From US9180217B2, “Sterilization system and device” (priority 2004, dated 2015) come the findings set out here.

The assay relates to bacillus stearothemophilus spores. Description: Spore studies in NO and NO2 (BI disks in TYVEK pouches, glass vessel). In kind it is cell-based. Conditions: Exp Time 10 min. As for the experimental part: The experiments are conducted in glass vessels in which gases can be metered in exact amounts. The tests were conducted using biological indicators made of stainless steel disks inoculated with 10^6 bacillus stearothemophilus spores. The BI disks are heat-sealed in individual TYVEK sterilization pouches and placed in a glass vessel. The vessel is filled with various mixtures of gases following specific protocols for the order and timing of gas introduction.
In one protocol, the glass vessel is evacuated to 3″ Hg absolute. Either NO or NO2, as the sterilant gas, is added in an amount that corresponds to a 5% concentration (by volume) when the vessel is completely filled with sterilant gas and diluent gas. After 5 minutes, either air or nitrogen was added to the vessel until atmospheric pressure is reached. The BI is exposed to the air or nitrogen for 10 minutes. Thereafter, the BIs, in their pouches, are removed from the vessel and taken to a microbiological hood. The biological indicators are removed from the pouches and placed in tubes with sterile tryptic soy broth, incubated at from about 55 to about 60° C., and monitored for growth.

As to `[O]N=O` [NO2, nitrogen dioxide], the “spore condition (Dead/Live)” value (5% in Air with Humidity Chip) is “Dead” and the “spore condition (Dead/Live)” value (5% in N2 with Humidity Chip) is given as “Dead”.
